Experiments:
[1] = tested on: endothelial cell migration and vessel formation in Matrigel plug; assay: In vivo murine Matrigel plug assay; parameters: species or system C57BL/6 mice; conditions: 10 μL daily of 100 μg/mL VEGF or 1800 μM S1P via fiber, 7 days post-implantation
Procedure: In vivo Assay. Growth factor reduced Matrigel™ (500 μL) was injected into the subcutaneous space on the dorsal side of C57BL/6 mice on both the left and right sides. A 12 G needle was used to thread cellulose hollow fibers through the skin and Matrigel™ plugs. Hollow fibers were fixed in place using tissue glue and an Elizabethan collar was used to prevent mice from extracting the hollow fiber. On the day of implantation and every day for the next 6 days, hollow fibers on the left side were injected with sterile saline and hollow fibers on the right side were injected with 10 μL of 100 μg/mL VEGF or 1800 μM S1P (see Table 8 for schedule).
Seven days post-implantation, implants were extracted, fixed and analyzed for endothelial cell migration and vessel formation. […] CD31 staining of Matrigel™ plug explants confirms that cells that have migrated into the Matrigel™ plugs are in fact endothelial cells (FIGS. 21E-H). Metamorph® was used to measure the % area of each image that consisted of endothelial cell staining in order to quantify endothelial cell migration.

[2] = tested on: surgically created aneurysm; conditions: bFGF collagen gel in fiber lumen, three weeks; cited from earlier work

Substance | blood filled vessels (H&E) [1] | fibrous tissue formation in aneurysm [2]
vascular endothelial growth factor [VEGF] | blood filled vessels | 
basic fibroblast growth factor [bFGF] |  | remained functional as it was able to guide the aneurysm to create fibrous tissue

Source: US20090136553A1, “TRIGGERABLY DISSOLVABLE HOLLOW FIBERS FOR CONTROLLED DELIVERY” (priority 2007, published 2009)
